Experiments:
[1] = molecular target: T1, Fatty acid-binding protein, adipocyte (Homo sapiens, UniProt P15090); assay: Displacement of 1,8-ANS from His6-tagged FABP4 (unknown origin) expressed in Escherichia coli BL21(DE3) cells at 25 uM by fluorescence assay relative to control
Target sequence in this assay (P15090 2-132 limits assumed): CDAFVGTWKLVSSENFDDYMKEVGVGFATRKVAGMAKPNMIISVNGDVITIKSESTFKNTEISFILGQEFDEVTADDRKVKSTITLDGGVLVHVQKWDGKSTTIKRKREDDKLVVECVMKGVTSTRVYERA

[2] = molecular target: T1, Fatty acid-binding protein, adipocyte; assay: Binding affinity to His6-tagged FABP4 (unknown origin) expressed in Escherichia coli BL21(DE3) cells assessed as change in melting temperature at 50 uM after 30 mins by SYPRO orange dye based thermal stability shift assay
Target sequence in this assay (P15090 2-132 limits assumed): as above

[3] = molecular target: T1, Fatty acid-binding protein, adipocyte; assay: Displacement of 1,8-ANS from His6-tagged FABP4 (unknown origin) expressed in Escherichia coli BL21(DE3) cells by fluorescence assay; details: read-out: Ki(app)
Target sequence in this assay (P15090 whole entry): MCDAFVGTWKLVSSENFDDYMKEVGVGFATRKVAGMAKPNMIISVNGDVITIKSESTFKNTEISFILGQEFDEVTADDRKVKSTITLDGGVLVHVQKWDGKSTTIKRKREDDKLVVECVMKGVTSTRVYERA

[4] = molecular target: T2, Fatty acid-binding protein, adipocyte (Mus musculus) (UniProt P04117); assay: Inhibition of FABP4 in mouse RAW264.7 cells assessed as inhibition of LPS-induced IL-6 expression after 24 hrs by qPCR method; type: cell-based
T2 sequence (whole entry): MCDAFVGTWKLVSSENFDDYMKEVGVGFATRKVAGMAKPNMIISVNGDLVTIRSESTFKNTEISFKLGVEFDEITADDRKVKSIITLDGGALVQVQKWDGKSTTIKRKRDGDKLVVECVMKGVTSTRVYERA

[5] = molecular target: T2, Fatty acid-binding protein, adipocyte (Mus musculus); assay: Inhibition of FABP4 in mouse RAW264.7 cells assessed as inhibition of LPS-induced TNFalpha expression after 24 hrs by qPCR method; type: cell-based
[6] = molecular target: T2, Fatty acid-binding protein, adipocyte (Mus musculus); assay: Inhibition of FABP4 in mouse RAW264.7 cells assessed as inhibition of LPS-induced TNFalpha production after 24 hrs by ELISA; type: cell-based
Homo sapiens [7] = species: Homo sapiens; assay: Displacement of 1,8-ANS from His6-tagged FABP4 (unknown origin) R126A mutant expressed in Escherichia coli BL21(DE3) cells at 25 uM by fluorescence assay relative to control
Homo sapiens [8] = species: Homo sapiens; assay: Displacement of 1,8-ANS from His6-tagged FABP4 (unknown origin) R106A mutant expressed in Escherichia coli BL21(DE3) cells at 25 uM by fluorescence assay relative to control

Compound | inhibition [1] [%] | ΔTm [2] [°C] | further results
CCc1ccccc1NC(=O)C(OC(=O)c1ccccc1)C(OC(=O)c1ccccc1)C(=O)O (stereo not given) | 2.1 | 0.5 | 
COc1ccccc1-c1cc(C(F)(F)F)nc(S(=O)(=O)CCCC(=O)O)n1 |  | -9.1 | 
Cc1ccc(C(=O)C2=C(O)C(=O)N(CCCC(=O)O)C2c2ccccc2F)cc1 (stereo not given) | 17.1 | 0 | 
O=C(O)CC/C(=N/NC(=O)c1c[nH]c2ccccc12)c1ccccc1 | -0.8 | -0.8 | 
O=C(O)C1C2CC=CC2c2c3c(cc4ccccc24)C2C=CCC2CN31 (stereo not given) |  | 7.5 | 
COc1ccc(S(=O)(=O)Nc2ccccc2C(=O)O)c2ccccc12 | 20.3 | 1.2 | 
CCCN1C2=C(C(=O)CC(C)(C)C2)C(c2cc(Cl)ccc2OCC(=O)O)C2=C1CC(C)(C)CC2=O |  | -0.2 | 
CCOC(=O)c1cnc2c(ccc3ccccc32)c1Nc1cccc(C(=O)O)c1 | 18.2 | 0.2 | 
COc1ccc(-c2ccc(C#N)c(SCC(=O)NCC(=O)O)n2)cc1 |  | -0.1 | 
Cc1ccc(C(C[N+](=O)[O-])c2c(-c3ccccc3C)n[nH]c2O)cc1 (stereo not given) | 5.8 | -3.7 | 
O=C(Nc1cc(Cl)ccc1Cl)/C(=N\Nc1ccccc1C(=O)O)C(=O)c1ccccc1 | 39.5 | 0.3 | Ki [3]: 10300 nM
Cc1ccc(C(=O)/C(=C\Nc2cc(Cl)ccc2C(=O)O)c2nnnn2-c2ccc(C)cc2)cc1 | -2.5 | -2.6 | 
Cc1ccc(C)c(NC(=O)C2CCC(C)(C(=O)O)C2(C)C)c1 (stereo not given) | 0.5 | 0.1 | 
COc1ccc(C2C(C(=O)c3ccc(C)cc3)=C(O)C(=O)N2CCCC(=O)O)cc1OC (stereo not given) | 16.6 | 1 | 
O=C(O)C1C2CC=CC2c2cc(Cl)cc3c2N1CC1CC=CC31 (stereo not given) |  | 7.9 | Ki [3]: 690 nM
CCCCCC(=O)N(CN1C(=O)c2ccccc2C1=O)c1cccc(C(=O)O)c1 | -1.9 | -0.2 | 
COc1cccc(-c2[nH]c3ccccc3c2C2c3ccccc3C(=O)N2CCC(=O)O)c1 (stereo not given) | 6.3 | 1.1 | 
O=C(O)C1CCCCC1C(=O)Nc1ccccc1-c1ccccc1 (stereo not given) | 27.7 | 3.9 | 
CN(CC(=O)O)c1ncc(-c2nnnn2-c2ccccc2)c(-c2ccccc2Cl)n1 | 0.5 | 0 | 

Compound | inhibition [1] [%] | ΔTm [2] [°C] | further results
COc1ccc(Cc2c(C)[nH]c3ccc(C(=O)O)cc23)cc1 |  | 1.2 | 
O=C(O)CSc1cc(NS(=O)(=O)c2ccc(Cl)cc2)c2ccccc2c1O | 70 | -2.8 | Ki [3]: 2300 nM
CC(=O)NC(Cc1ccc(O)cc1)C(=O)O (stereo not given) | -3.6 | -0.1 | 
O=C(O)c1cccc2c1NC(c1ccccc1[N+](=O)[O-])C1CC(Sc3ccccc3[N+](=O)[O-])C(Cl)C21 (stereo not given) | 41.5 | -0.2 | Ki [3]: 5400 nM
O=C(O)CC(Sc1nc2sc3c(c2c(=O)[nH]1)CCCC3)C(=O)O (stereo not given) |  | 0.1 | 
Cc1oc2c(cc(NS(=O)(=O)c3ccc(Cl)cc3)c3ccccc32)c1C(=O)O | 30.2 | 2.8 | 
COc1ccccc1N1CCN(C(=O)c2ccccc2NC(=O)C2CCCCC2C(=O)O)CC1 (stereo not given) | -5 | 0.1 | 
O=C(O)COc1ccc(Br)cc1/C=C1\S/C(=N\c2ccc(Cl)cc2)NC1=O |  | -0.6 | 
Cc1[nH]nc2c1C1(C(=O)N(C(C)C(=O)O)c3ccccc31)C(C#N)=C(N)O2 (stereo not given) | 6 | 0.1 | 
O=C(O)CCC(=O)Nc1sc2c(c1C(=O)Nc1cccc3ccccc13)CCCCC2 | 0.4 | 0.2 | 
O=C(O)CCSc1nc2ccccc2n1Cc1ccccc1 | 27.9 | 2.8 | 
Cc1oc2ccc(NS(=O)(=O)c3ccccc3)cc2c1C(=O)O | 9.5 | 0.2 | 
Cc1cc2c3c(c1)C1C=CCC1C(C(=O)O)N3CC1CC=CC21 (stereo not given) |  | 6.2 | Ki [3]: 380 nM; inhibition [4]: Dose-dependent effect; inhibition [5]: Dose-dependent effect; inhibition [6]: Dose-dependent effect
O=C(O)c1ccccc1C(=O)N(Cc1ccccc1)Cc1ccccc1 | 4.9 | 1 | 
Cc1cc(=O)n2c3c(cc(S(=O)(=O)NCc4ccc(C(=O)O)cc4)cc13)CC2 |  | 0.8 | 
CCOc1cc(/C=C2/SC(=S)N(CCC(=O)O)C2=O)ccc1O | 63.2 | -1.8 | Ki [3]: 2500 nM
Cc1cc(C)c2c3c1C1C=CCC1CN3C(C(=O)O)C1CC=CC21 (stereo not given) |  | 5.8 | Ki [3]: 610 nM
O=C(O)C(Cc1ccc(O)cc1)N1C(=O)c2c(Cl)c(Cl)c(Cl)c(Cl)c2C1=O (stereo not given) | 6 | 0.5 | 
O=C(O)c1ccc(S(=O)(=O)Nc2ccc(O)c(Sc3nc4ccccc4s3)c2)cc1 | 7.2 | 0.1 | 

Compound | inhibition [1] [%] | ΔTm [2] [°C] | further results
CN1C(=O)/C(=N/c2cccc(C(=O)O)c2)S/C1=C\c1cccs1 | 25.8 | -0.3 | 
CC(Sc1nc(-c2ccccc2)c(-c2ccccc2)[nH]1)C(=O)O (stereo not given) |  | 3.1 | 
CCCCCCCn1c(SCC(=O)O)nc2c1c(=O)[nH]c(=O)n2C | 13 | 2 | 
CCCOc1cc(S(=O)(=O)Nc2ccc(C(=O)O)cc2)ccc1Cl | 31.4 | 0.1 | Ki [3]: 4300 nM
Cc1ccc(S(=O)(=O)NC(CC(=O)O)c2ccccc2)c(C)c1 (stereo not given) | -0.3 | 0.2 | 
CCc1c(-c2ccccc2)c(-c2ccccc2)nn1-c1ccccc1-c1cccc(OCC(=O)O)c1 |  | 10.6 | inhibition [4]: Dose-dependent effect; inhibition [5]: Dose-dependent effect; inhibition [6]: Dose-dependent effect
COc1ccc(CN(C(=O)COc2cc(C)ccc2C(C)C)c2ccccc2C(=O)O)cc1 | 18.5 | 0.1 | 
Cc1nc(=O)c(-c2ccccc2)c(C)n1CCCCCC(=O)O | -3.2 | 0 | 
C=C1C(N(CCc2ccc(OC)cc2)C(=O)CCC(=O)O)CC(=O)N1c1ccccc1 (stereo not given) | 1 | -0.1 | 
Cc1ccc(/N=C2/NC(=O)/C(=C/c3cccn3-c3cccc(C(=O)O)c3)S2)cc1C | 36.8 | -9 | Ki [3]: 3600 nM
O=C(CSc1ncccc1C(=O)O)c1ccc(O)c(O)c1 | -0.2 | -0.6 | 
O=C(O)C1C2CC(Sc3ccccc3[N+](=O)[O-])C(Cl)C2c2cccc3c2N1CC1CC=CC31 (stereo not given) | 60.2 | 3.5 | Ki [3]: 3100 nM
O=c1cc(O)c2c(=O)n(N(c3ccccc3)c3ccccc3)c3c(c2o1)CCCC3 | 0.9 | 0.3 | 
O=C(O)c1cccc(-c2ccc(CNC(Cc3c[nH]c4ccccc34)C(=O)O)o2)c1 (stereo not given) |  | -2.4 | 
O=C(O)CCC(=O)Nc1ccccc1C(=O)N1CCCCCC1 | 3.4 | -0.1 | 
Cc1ccc(-n2c(SCC(=O)Nc3c(C)cccc3C)nc(O)cc2=O)cc1 | -3 | 0 | 
CCCCCCCC/C=C\CCCCCCCC(=O)O | 82.1 | 3.3 | inhibition (Homo sapiens [7]): 48.8%; inhibition (Homo sapiens [8]): 69.4%
CCCCC/C=C\C/C=C\CCCCCCCC(=O)O |  | 1.1 | 

Reference: ChEMBL document CHEMBL3826919, “The discovery of novel and selective fatty acid binding protein 4 inhibitors by virtual screening and biological evaluation” (Bioorg Med Chem, 2016)
